“Also recorded” adds a separate entry of the source. Where only a bound is given, the exact number is not on record here.

The subject of data set [1] is Mouse Embryonic Fibroblasts (MEF). Put plainly: Cell death analysis in MEF cells. It is filed as cell-based. The following applies: non-cancerous MEF cells, 40 μM AA. Here is the method:
(§1) SiHa cells were treated with 0-50 μM AA or solvent control at 10 μM interval. […] Fourty eight hours later, the cells were collected and analyzed for apoptosis and/or necrosis. Activated caspase-3 in cells was labeled with phyco-erythrin-conjugated antibody according to manufacturer's protocol (PE Active Caspase-3 Apoptosis Kit; BD Pharmingen, San Diego, Calif.) and analyzed by FACSCalibur flow cytometer (FL-2, FSC, BD Pharmingen).
(§2) HeLa, Caski, c33a, MCF7, MDA-MB-231 and MEF cells were treated with 0 and 40 μM AA. Forty eight hours later, the cells were collected and analyzed for apoptosis.

The test system of data set [2] is SiHa cells. Nature of the data set: MTT cytotoxicity assay. The data set is classed as cell-based. Particulars: 50 μM AA, preliminary studies, unpublished data. Background: Formazan colour is commonly taken as a measure of viable cells.
Data set [3] relates to SiHa cells. Nature of the data set: Mitochondrial depolarization by TMRM labeling. It is filed as cell-based. The following applies: 20-40 μM AA, 8-48 h. Here is the method:
Tetramethylrhodamine, methyl ester (TMRM, Invitrogen, Cergy Pontoise, France) was stored as 20 mM dimethylsulfoxide stock and diluted in medium before use. The cells were incubated in 20 nM tetramethylrhodamine for 10 min in 37° C. water bath. The cells were placed on ice and analyzed immediately by FACSCalibur flow cytometry.

In data set [4] the test system is SiHa cells. Nature of the data set: Cell cycle analysis of synchronized cells (PI, flow cytometry). It is filed as cell-based. The following applies: 24 h. Here is the method:
(§3) Cells were synchronized by serum-starvation (1% serum) for 48 h and then cultured in medium containing 10% FCS for 24 h. After this, the cells were incubated with 0, 20 and 40 μM AA for 24. These doses were chosen since apoptosis induction was highest at 40 μM (the dose was limited to 40 μM in the following studies). The cells were collected and disrupted and the nuclei labelled for DNA content with PI by re-suspension in sodium citrate buffer [40 mM Na-citrate, 0.3% Triton X-100, 50 μg/ml PI (Sigma-Aldrich)]. After incubation at room temperature for 10 min, the samples were immediately analyzed by FACSCalibur flow cytometry.
(Flow cytometry measures light scatter and fluorescence of single cells or particles in a stream.)

For data set [5], the system named is MDA-MB-231 cells. Put plainly: Apoptosis analysis in MDA-MB-231 cells. The data set is classed as cell-based. Particulars: breast cancer MDA-MB-231 cells (p53−), 40 μM AA, 48 h. Here is the method: as §1, §2
Data set [6] relates to caspase-9, caspase-8, caspase-3 and PARP. Nature of the data set: Western blotting for cleavage of caspases and PARP. It is filed as cell-based. Particulars: SiHa lysates. Here is the method:
Whole cell lysates were prepared by lysing the cells in Laemmli sample buffer (Laemmli, 1970) and boiling the samples for 10 min after which proteins were separated in 12.5-15% SDS-PAGE. Western blotting was performed using antibodies against poly (ADP-ribose) polymerase (clone C-2-10; Sigma-Aldrich), Bid, Bax, caspase 8, caspase 9, caspase 3, SAPK/JNK, Phospho SAPK/JNK (Thr183/Tyr185), cIAP2 (Enzo Lifesciences), Akt, Phospho Akt(Ser473) (Cell Signalling Technology, Davers, Mass., USA), p21, Bcl-xL (Santa Cruz Biotechnology, Inc, Santa Cruz, Calif.), β-actin (clone AC-40; Sigma-Aldrich) and p53 (clone DO-1; BD Pharmingen). Horseradish peroxidase-conjugated secondary antibodies were obtained from Southern Biotechnology Associates (Birmingham, Ala.), Promega (Madison, Wis.) and Amersham Biosciences (Freiburg, Germany). The results were visualized using the ECL method (Amersham Biosciences) on X-ray film. The presented Western blot results are representative of at least three independent experiments.
Background: In western blotting, separated proteins are transferred to a membrane and probed.

Data set [7] deals with Caski cells. Put plainly: Apoptosis analysis in Caski cells. The following applies: HPV positive Caski cells (p53+), 40 μM AA, 48 h. It is filed as cell-based. Here is the method:
as §1, §2

Data set [8] has as its system SiHa cells. Nature of the data set: Propidium iodide detection of permeabilized (necrotic) cells. The data set is classed as cell-based. The following applies: AA doses greater than 40 μM. Here is the method:
For detection of permeabilized (necrotic) cells, the cells were trypsinized and resuspended in 50 μg/ml Propidium Iodide (PI) (Sigma-Aldrich) in PBS for 10 minutes at room temperature. The samples were analyzed by flow cytometry.

For data set [9], the system named is HeLa cells. Put plainly: Apoptosis analysis in HeLa cells. It is filed as cell-based. The following applies: HPV positive HeLa cells (p53+), 40 μM AA, 48 h. Here is the method: as §1, §2
Data set [10] has as its system c33a cells. Nature of the data set: Apoptosis analysis in c33a cells. Particulars: HPV negative c33a cells (p53−), 40 μM AA, 48 h. The data set is classed as cell-based. Here is the method: as §1, §2
For data set [11], the system named is MCF7 cells. Nature of the data set: Apoptosis analysis in MCF7 cells. The data set is classed as cell-based. Particulars: breast cancer MCF7 cells (p53+), 40 μM AA, 48 h. Here is the method:
as §1, §2

In data set [12] the test system is SiHa cells with p53 down-regulated by p53-shRNA. Nature of the data set: RNA interference: p53-shRNA SiHa cells treated with AA. It is filed as cell-based. Here is the method: as §3
The pSUPER vector (SEQ ID NO: 1) (Oligoengine, Seattle, Wash., USA) for expression of human p53 targeted shRNA (5′[…] AGUCUU3′, Brummelkamp et al., 2002) was kindly provided by Dr. Pia Roos-Mattjus. The scramble (Scr) pSUPER vector (SEQ ID NO: 2) (5′GCG CGC TTT GTA GGA TTC G3′, Ostling et al., 2007) was transfected to control cells. Trypsinized SiHa cells were transfected with the shRNA expression plasmids by electroporation in Opti-MEM media (Gibco, Calif., USA). Twenty four hours post-transfection, the culture medium was changed and the cells were treated with AA or left untreated, after which the cells were cultured for another 24 h or 48 h. The efficiency of the shRNA expression vector was determined by Western blotting for p53 expression.
Whole cell lysates were prepared by lysing the cells in Laemmli sample buffer (Laemmli, 1970) and boiling the samples for 10 min after which proteins were separated in 12.5-15% SDS-PAGE. Western blotting was performed using antibodies against poly (ADP-ribose) polymerase (clone C-2-10; Sigma-Aldrich), Bid, Bax, caspase 8, caspase 9, caspase 3, SAPK/JNK, Phospho SAPK/JNK (Thr183/Tyr185), cIAP2 (Enzo Lifesciences), Akt, Phospho Akt(Ser473) (Cell Signalling Technology, Davers, Mass., USA), p21, Bcl-xL (Santa Cruz Biotechnology, Inc, Santa Cruz, Calif.), β-actin (clone AC-40; Sigma-Aldrich) and p53 (clone DO-1; BD Pharmingen). […]

Data set [13] in a line: Solubility. The data set is classed as physicochemical.
Data set [14] deals with SiHa cells. Nature of the data set: PE active caspase-3 apoptosis assay by FACS. It is filed as cell-based. Here is the method: as §1, with “Pharmingen). SiHa cells were also tested with 40 μM AA and AA emulsion for 24 and 48 h. The cells were collected and analyzed for apoptosis adopting PE active caspase-3 assay by FACS.” for “Pharmingen).”
Data set [15] concerns c33a cells. Nature of the data set: His-tag E6 plasmid transfection of c33a cells, Western blot and FACS. The data set is classed as cell-based. The following applies: 70 μM AA. Here is the method: c33a cells were pelleted and resuspended in OPTIMEM (Gibco, Invitrogen Foundation, Washington D.C., USA) and electroporated with mock or His-tag E6 plasmid at 220 V and 975 μF. Twenty four hours post-transfection, the culture medium was changed and the cells were treated with AA or left untreated, after which the cells were cultured for another 24 h or 48 h for further analysis adopting Western blotting and cell death assay by FACS.

Turning to `C=C1C(=O)O[C@H]2/C=C(\C)CC/C=C(\C(=O)O)CC/C=C(\C)CC[C@H]12` [AA, Anisomelic acid], the cell death result in [1] is listed as “failed to induce cell death”. The killing in data set [2] is reported as at least 95%. For the same compound, the mitochondrial membrane depolarization entry in data set [3] is “occured in a time-dependent manner”. Also, in data set [4] (20 and 40 μM AA), the cell cycle distribution entry was “accumulated at the G2/M phase”. The “dose at which G2/M arrest occurred more effectively” value in [4] was found to be 20 µM. Further, the apoptosis induction entry in data set [5] is given as “failed to induce effective apoptosis”; in data set [7], “effectively induced apoptosis”; in [9], “effectively induced apoptosis”; in data set [10], “significantly less; also recorded: do not undergo apoptosis”; in data set [11], “failed to induce effective apoptosis”; in data set [15] (c33a cells), “undergo apoptosis”. Moreover, the “cleavage of caspase-3 and PARP” value in [6] (20-40 μM AA) is “induced the cleavage of caspase-3 and poly-ADP-ribose polymerase (PARP)”. Moreover, the “cleavage of procaspase-9 into 35/37 kDa fragments” value in [6] (20 and 40 μM AA) was “seen after 12 h incubation”. Moreover, the “cleavage of procaspase-8” value in data set [6] (AA treatment) was “observed abundantly only after 24 h”. Moreover, the “cell permeabilization by PI labeling (necrotic cell death)” value in data set [8] is “could not detect increased cell permeabilization”. Further, the “percentage of AA-induced apoptosis (caspase-3 activation, flow cytometry)” value in [12] (SiHa cells in the absence of p53 expression, 40 μM AA) was “did not observe any significant decrease”. The “induction of p53 and p21 proteins by AA” value in [12] (p53-shRNA SiHa cells, 40 μM & 20 μM AA respectively) is “abrogated”. Besides, the “AA-induced cell cycle arrest” value in [12] (p53-shRNA SiHa cells, 24 h after start of AA treatment) is “no longer accumulated at the G2/M phase”. Also, the “solubility in DMSO and hot ethanol” value in data set [13] is given as “dissolves”. For the same compound, the “solubility in water or other aqueous solvents” value in [13] was “mostly insoluble”. The “time at which maximum percentage of apoptosis was achieved” value in data set [14] (SiHa cells) is listed as 48 h. The “cells that contained activated caspase-3 as a measure of apoptosis” value in data set [14] (SiHa, 40 μM AA, 48 h) is “marked activation of caspase-3”. Also, the caspase-3 cleavage result in data set [14] (SiHa, AA doses greater than 40 μM) is on record as “reduced caspase-3 cleavage dramatically”. In [15] (c33a cells transfected with His-tag E6 vs mock), the “AA-induced apoptosis after E6 transfection” value was “rescued c33a cells from apoptsis significantly”.
Consider Z-VAD.fmk [reference compound], for which the “effect on AA-induced caspase-3 activation” value in data set [14] (SiHa, pre-incubation with 40 μM Z-VAD.fmk prior to 40 μM AA, data not shown) was “reversed caspase-3 activation and apoptotic cell morphology”.

The record behind these values is patent US9623002B2, “Pharmaceutical compositions of Anisomelic acid and the use thereof” (priority 2012, dated 2017).
